Calls of active or inactive are those of the source. The rule behind the calls is not given here.
Experiments:
MCF7 = experiment: Cytotoxicity against human MCF7 cells assessed as reduction in cell viability by MTT assay; format: cell-based
MCF-10A = experiment: Cytotoxicity against human MCF10A cells assessed as reduction in cell viability by MTT assay; format: cell-based
[1] = Cytotoxicity against human […] cells assessed as reduction in cell viability by MTT assay; format: cell-based
HCT-116 = experiment: Cytotoxicity against human HCT116 cells assessed as reduction in cell viability by MTT assay; format: cell-based
DNA [2] = experiment: Binding affinity to Escherichia coli supercoiled pHOT1 DNA assessed as inhibition of topoisomerase-1-mediated relaxation of supercoiled DNA at 10 uM after 30 mins by agarose gel electrophoresis method; format: nucleic-acid assay
Human alphaherpesvirus 1 [3] = experiment: Antiviral activity against Herpes simplex virus-1 infected in cells; format: functional, organism-based
DNA [4] = experiment: Binding affinity to Escherichia coli supercoiled pHOT1 DNA assessed as inhibition of topoisomerase-1-mediated relaxation of supercoiled DNA at 2.5 to 20 uM after 30 mins by agarose gel electrophoresis method; format: nucleic-acid assay
Calf thymus DNA [5] = experiment: Binding affinity to calf thymus DNA at 0.95 uM by fluorescence spectral analysis; format: nucleic-acid assay; settings: Bos taurus
Calf thymus DNA [6] = experiment: Binding affinity to calf thymus DNA assessed as bathochromic shift at 2.38 x 10^-6M by absorption spectral analysis; format: nucleic-acid assay; settings: Bos taurus
[7] = Drug uptake in human U251 cell nucleus treated at 10 to 20 uM after 20 to 40 hrs by fluorescent microscopic method; format: ADME, subcellular; settings: u-251, 20 µM
Calf thymus DNA [8] = experiment: Binding affinity to calf thymus DNA groove using DNA cholesteric liquid crystal dispersions assessed as positive band appearance at 0.47 to 4.73 uM by CD spectral analysis; format: nucleic-acid assay; settings: Bos taurus
Human alphaherpesvirus 1 [9] = experiment: Antiviral activity against Herpes simplex virus-1 strain F infected in African green monkey Vero cells assessed as late protein gb level at 50 ug/ml after 48 hrs by immunostaining based luminescent microscopic method (reference value: 95.6%); format: functional
Calf thymus DNA [10] = experiment: Binding affinity to calf thymus DNA assessed as hypochromic shift at 2.38 x 10^-6M by absorption spectral analysis; format: nucleic-acid assay; settings: Bos taurus
Calf thymus DNA [11] = experiment: Binding affinity to calf thymus DNA at 1 uM by fluorescence spectral analysis; format: nucleic-acid assay; settings: Bos taurus
Calf thymus DNA [12] = experiment: Binding affinity to calf thymus DNA assessed as bathochromic shift at 4.4 x 10^-6M by absorption spectral analysis; format: nucleic-acid assay; settings: Bos taurus
Calf thymus DNA [13] = experiment: Binding affinity to calf thymus DNA groove using DNA cholesteric liquid crystal dispersions assessed as positive band appearance at 1.1 to 5.45 uM by CD spectral analysis; format: nucleic-acid assay; settings: Bos taurus
Calf thymus DNA [14] = experiment: Binding affinity to calf thymus DNA assessed as hypochromic shift at 4.4 x 10^-6M by absorption spectral analysis; format: nucleic-acid assay; settings: Bos taurus
Cytomegalovirus = experiment: Antiviral activity against CMV infected in cells; format: functional, organism-based
[15] = target: Human immunodeficiency virus type 1 integrase (Human immunodeficiency virus 1, UniProt Q7ZJM1); experiment: Inhibition of HIV1 integrase
Human immunodeficiency virus type 1 integrase, sequence (Q7ZJM1 whole entry): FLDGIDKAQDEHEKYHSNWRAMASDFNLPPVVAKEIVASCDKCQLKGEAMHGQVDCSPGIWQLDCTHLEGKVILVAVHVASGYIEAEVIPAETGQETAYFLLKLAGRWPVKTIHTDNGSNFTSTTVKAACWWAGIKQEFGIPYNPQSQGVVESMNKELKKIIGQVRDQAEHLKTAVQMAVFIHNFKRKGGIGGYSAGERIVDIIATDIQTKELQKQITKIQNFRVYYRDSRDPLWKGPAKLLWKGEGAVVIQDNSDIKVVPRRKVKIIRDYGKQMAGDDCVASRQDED

## CN1CCN(c2ccc3nc(-c4ccc5nc(CNC(=O)CCCCCCCCCCCCC(=O)NCc6nc7ccc(-c8nc9ccc(N%10CCN(C)CC%10)cc9[nH]8)cc7[nH]6)[nH]c5c4)[nH]c3c2)CC1
MCF7
  IC50: 20 to 90 µM
MCF-10A
  IC50: 20 to 90 µM
[1]
  IC50: 20 to 90 µM
HCT-116
  IC50: 20 to 90 µM

## CN1CCN(c2ccc3nc(-c4ccc5nc(CNC(=O)CCCC(=O)NCc6nc7ccc(-c8nc9ccc(N%10CCN(C)CC%10)cc9[nH]8)cc7[nH]6)[nH]c5c4)[nH]c3c2)CC1
MCF7
  IC50: 20 to 90 µM
MCF-10A
  IC50: 20 to 90 µM
[1]
  IC50: 20 to 90 µM
DNA [2]
  inhibition: Active
HCT-116
  IC50: 20 to 90 µM

## CN1CCN(c2ccc3nc(-c4ccc5nc(CNC(=O)CCC(=O)NCc6nc7ccc(-c8nc9ccc(N%10CCN(C)CC%10)cc9[nH]8)cc7[nH]6)[nH]c5c4)[nH]c3c2)CC1
MCF7
  IC50: 20 to 90 µM
MCF-10A
  IC50: 20 to 90 µM
[1]
  IC50: 20 to 90 µM
HCT-116
  IC50: 20 to 90 µM

## CN1CCN(c2ccc3nc(-c4ccc5nc(CNC(=O)CCCCC(=O)NCc6nc7ccc(-c8nc9ccc(N%10CCN(C)CC%10)cc9[nH]8)cc7[nH]6)[nH]c5c4)[nH]c3c2)CC1
MCF7
  IC50: 20 to 90 µM
MCF-10A
  IC50: 20 to 90 µM
[1]
  IC50: 20 to 90 µM
HCT-116
  IC50: 20 to 90 µM

## CN(C)CCCNC(=O)c1ccc2nc(-c3ccc4nc(CNC(=O)CC(=O)NCc5nc6ccc(-c7nc8ccc(C(=O)NCCCN(C)C)cc8[nH]7)cc6[nH]5)[nH]c4c3)[nH]c2c1
MCF7
  IC50: > 240 µM
MCF-10A
  IC50: > 240 µM
[1]
  IC50: > 240 µM
Human alphaherpesvirus 1 [3]
  Activity: Active
HCT-116
  IC50: > 240 µM
DNA [4]
  inhibition: Active

## CN(C)CCCNC(=O)c1ccc2nc(-c3ccc4nc(CNC(=O)CCCCCCCC(=O)NCc5nc6ccc(-c7nc8ccc(C(=O)NCCCN(C)C)cc8[nH]7)cc6[nH]5)[nH]c4c3)[nH]c2c1
MCF7
  IC50: > 240 µM
MCF-10A
  IC50: > 240 µM
[1]
  IC50: > 240 µM
Calf thymus DNA [5]
  Activity: Active
Human alphaherpesvirus 1 [3]
  Activity: Active
Calf thymus DNA [6]
  Activity: Active
[7]
  Drug uptake: Active
HCT-116
  IC50: > 240 µM
DNA [4]
  inhibition: Active
Calf thymus DNA [8]
  Activity: Active
Human alphaherpesvirus 1 [9]
  Activity: 10%
Calf thymus DNA [10]
  Activity: Active

## CN(C)CCCNC(=O)c1ccc2nc(-c3ccc4nc(CNC(=O)CCCCCC(=O)NCc5nc6ccc(-c7nc8ccc(C(=O)NCCCN(C)C)cc8[nH]7)cc6[nH]5)[nH]c4c3)[nH]c2c1
MCF7
  IC50: > 240 µM
MCF-10A
  IC50: > 240 µM
[1]
  IC50: > 240 µM
Calf thymus DNA [11]
  Activity: Active
Calf thymus DNA [12]
  Activity: Active
[7]
  Drug uptake: Active
Calf thymus DNA [13]
  Activity: Active
HCT-116
  IC50: > 240 µM
DNA [4]
  inhibition: Active
Calf thymus DNA [14]
  Activity: Active

## CN(C)CCCNC(=O)c1ccc2nc(-c3ccc4nc(CNC(=O)CCCCCCCCCC(=O)NCc5nc6ccc(-c7nc8ccc(C(=O)NCCCN(C)C)cc8[nH]7)cc6[nH]5)[nH]c4c3)[nH]c2c1
MCF7
  IC50: > 240 µM
MCF-10A
  IC50: > 240 µM
[1]
  IC50: > 240 µM
[7]
  Drug uptake: Active
HCT-116
  IC50: > 240 µM
DNA [4]
  inhibition: Active

## CN(C)CCCNC(=O)c1ccc2nc(-c3ccc4nc(CNC(=O)CCCCCCCCCCCC(=O)NCc5nc6ccc(-c7nc8ccc(C(=O)NCCCN(C)C)cc8[nH]7)cc6[nH]5)[nH]c4c3)[nH]c2c1
MCF7
  IC50: > 240 µM
MCF-10A
  IC50: > 240 µM
[1]
  IC50: > 240 µM
Cytomegalovirus
  Activity: Active
Human alphaherpesvirus 1 [3]
  Activity: Active
[15]
  IC50: 0.06 µM
[7]
  Drug uptake: Active
HCT-116
  IC50: > 240 µM
DNA [4]
  inhibition: Active

## CN1CCN(c2ccc3nc(-c4ccc5nc(CNC(=O)CCCCCC(=O)NCc6nc7ccc(-c8nc9ccc(N%10CCN(C)CC%10)cc9[nH]8)cc7[nH]6)[nH]c5c4)[nH]c3c2)CC1
MCF7
  IC50: 20 to 90 µM
MCF-10A
  IC50: 20 to 90 µM
[1]
  IC50: 20 to 90 µM
HCT-116
  IC50: 20 to 90 µM
DNA [4]
  inhibition: Active

## CN1CCN(c2ccc3nc(-c4ccc5nc(CNC(=O)CCCCCCCC(=O)NCc6nc7ccc(-c8nc9ccc(N%10CCN(C)CC%10)cc9[nH]8)cc7[nH]6)[nH]c5c4)[nH]c3c2)CC1
MCF7
  IC50: 20 to 90 µM
MCF-10A
  IC50: 20 to 90 µM
[1]
  IC50: 20 to 90 µM
HCT-116
  IC50: 20 to 90 µM
DNA [4]
  inhibition: Active

## CN1CCN(c2ccc3nc(-c4ccc5nc(CNC(=O)CCCCCCCCCC(=O)NCc6nc7ccc(-c8nc9ccc(N%10CCN(C)CC%10)cc9[nH]8)cc7[nH]6)[nH]c5c4)[nH]c3c2)CC1
MCF7
  IC50: 20 to 90 µM
MCF-10A
  IC50: 20 to 90 µM
[1]
  IC50: 20 to 90 µM
HCT-116
  IC50: 20 to 90 µM

## CN1CCN(c2ccc3nc(-c4ccc5nc(CNC(=O)CCCCCCCCC(=O)NCc6nc7ccc(-c8nc9ccc(N%10CCN(C)CC%10)cc9[nH]8)cc7[nH]6)[nH]c5c4)[nH]c3c2)CC1
MCF7
  IC50: 20 to 90 µM
MCF-10A
  IC50: 20 to 90 µM
[1]
  IC50: 20 to 90 µM
HCT-116
  IC50: 20 to 90 µM

## CN1CCN(c2ccc3nc(-c4ccc5nc(CNC(=O)CCCCCCC(=O)NCc6nc7ccc(-c8nc9ccc(N%10CCN(C)CC%10)cc9[nH]8)cc7[nH]6)[nH]c5c4)[nH]c3c2)CC1
MCF7
  IC50: 20 to 90 µM
MCF-10A
  IC50: 20 to 90 µM
[1]
  IC50: 20 to 90 µM
HCT-116
  IC50: 20 to 90 µM

## CN1CCN(c2ccc3nc(-c4ccc5nc(CNC(=O)CC(=O)NCc6nc7ccc(-c8nc9ccc(N%10CCN(C)CC%10)cc9[nH]8)cc7[nH]6)[nH]c5c4)[nH]c3c2)CC1
MCF7
  IC50: 20 to 90 µM
MCF-10A
  IC50: 20 to 90 µM
[1]
  IC50: 20 to 90 µM
HCT-116
  IC50: 20 to 90 µM
DNA [4]
  inhibition: Active

## CN1CCN(c2ccc3nc(-c4ccc5nc(CNC(=O)CCCCCCCCCCC(=O)NCc6nc7ccc(-c8nc9ccc(N%10CCN(C)CC%10)cc9[nH]8)cc7[nH]6)[nH]c5c4)[nH]c3c2)CC1
MCF7
  IC50: 20 to 90 µM
MCF-10A
  IC50: 20 to 90 µM
[1]
  IC50: 20 to 90 µM
HCT-116
  IC50: 20 to 90 µM

## CN(C)CCCNC(=O)c1ccc2nc(-c3ccc4nc(CNC(=O)CCCC(=O)NCc5nc6ccc(-c7nc8ccc(C(=O)NCCCN(C)C)cc8[nH]7)cc6[nH]5)[nH]c4c3)[nH]c2c1
MCF7
  IC50: > 240 µM
MCF-10A
  IC50: > 240 µM
[1]
  IC50: > 240 µM
[7]
  Drug uptake: Active
HCT-116
  IC50: > 240 µM
DNA [4]
  inhibition: Active

## CN1CCN(c2ccc3nc(-c4ccc5nc(CNC(=O)CCCCCCCCCCCC(=O)NCc6nc7ccc(-c8nc9ccc(N%10CCN(C)CC%10)cc9[nH]8)cc7[nH]6)[nH]c5c4)[nH]c3c2)CC1
MCF7
  IC50: 20 to 90 µM
MCF-10A
  IC50: 20 to 90 µM
[1]
  IC50: 20 to 90 µM
HCT-116
  IC50: 20 to 90 µM

## Nc1nc2c(ncn2COCCO)c(=O)[nH]1 [ACYCLOVIR]
Human alphaherpesvirus 1 [9]
  Activity: 0.1%
